Reference: patent US11529356B2, “2-(morpholin-4-yl)-1,7-naphthyridines” (Bayer Pharma Aktiengesellschaft, priority 2014, dated 2022)

Experiments:
Caco-2 cells = assay: Proliferation Assay Caco-2 (crystal violet); assay type: cell-based; conditions: Homo sapiens, Caco-2, Caco-2 cells; read-out: Inhibition of Caco-2 cell proliferation IC50
Description: After 24 hours, the cells of one plate (zero plate) were dyed with crystal violet (see below), whereas the medium of the other plates was replaced with fresh culture medium (200 μl) to which the test substances were added in various concentrations (0 μM, and also in the range of 0.001-10 μM; the final concentration of the solvent dimethyl sulphoxide was 0.1 or 0.5%). The cells were incubated for 4 days in the presence of the test substances. […] After washing the fixed cells three times with water, the plates were dried at room temperature. The cells were stained by adding 100 μl/measurement point of a 0.1% strength crystal violet solution (pH adjusted to pH 3 by adding acetic acid). After washing the cells three times with water, the plates were dried at room temperature. The dye was dissolved by adding 100 μl/measurement point of a 10% strength acetic acid solution. […] The percentage change in cell growth was calculated by normalizing the measured values to the absorbance values of the zero plate (=0%) and the absorbance of the untreated (0 μM) cells (=100%). The IC50 values were determined by means of a four parameter fit.

[1] = molecular target: full-length human ATR protein (Homo sapiens (Human), UniProt Q13535); assay: Binding Assay ATR (TR-FRET tracer displacement); conditions: tracer A
Chain of full-length human ATR protein (Q13535 other isoform, or with tags, fused parts or gaps): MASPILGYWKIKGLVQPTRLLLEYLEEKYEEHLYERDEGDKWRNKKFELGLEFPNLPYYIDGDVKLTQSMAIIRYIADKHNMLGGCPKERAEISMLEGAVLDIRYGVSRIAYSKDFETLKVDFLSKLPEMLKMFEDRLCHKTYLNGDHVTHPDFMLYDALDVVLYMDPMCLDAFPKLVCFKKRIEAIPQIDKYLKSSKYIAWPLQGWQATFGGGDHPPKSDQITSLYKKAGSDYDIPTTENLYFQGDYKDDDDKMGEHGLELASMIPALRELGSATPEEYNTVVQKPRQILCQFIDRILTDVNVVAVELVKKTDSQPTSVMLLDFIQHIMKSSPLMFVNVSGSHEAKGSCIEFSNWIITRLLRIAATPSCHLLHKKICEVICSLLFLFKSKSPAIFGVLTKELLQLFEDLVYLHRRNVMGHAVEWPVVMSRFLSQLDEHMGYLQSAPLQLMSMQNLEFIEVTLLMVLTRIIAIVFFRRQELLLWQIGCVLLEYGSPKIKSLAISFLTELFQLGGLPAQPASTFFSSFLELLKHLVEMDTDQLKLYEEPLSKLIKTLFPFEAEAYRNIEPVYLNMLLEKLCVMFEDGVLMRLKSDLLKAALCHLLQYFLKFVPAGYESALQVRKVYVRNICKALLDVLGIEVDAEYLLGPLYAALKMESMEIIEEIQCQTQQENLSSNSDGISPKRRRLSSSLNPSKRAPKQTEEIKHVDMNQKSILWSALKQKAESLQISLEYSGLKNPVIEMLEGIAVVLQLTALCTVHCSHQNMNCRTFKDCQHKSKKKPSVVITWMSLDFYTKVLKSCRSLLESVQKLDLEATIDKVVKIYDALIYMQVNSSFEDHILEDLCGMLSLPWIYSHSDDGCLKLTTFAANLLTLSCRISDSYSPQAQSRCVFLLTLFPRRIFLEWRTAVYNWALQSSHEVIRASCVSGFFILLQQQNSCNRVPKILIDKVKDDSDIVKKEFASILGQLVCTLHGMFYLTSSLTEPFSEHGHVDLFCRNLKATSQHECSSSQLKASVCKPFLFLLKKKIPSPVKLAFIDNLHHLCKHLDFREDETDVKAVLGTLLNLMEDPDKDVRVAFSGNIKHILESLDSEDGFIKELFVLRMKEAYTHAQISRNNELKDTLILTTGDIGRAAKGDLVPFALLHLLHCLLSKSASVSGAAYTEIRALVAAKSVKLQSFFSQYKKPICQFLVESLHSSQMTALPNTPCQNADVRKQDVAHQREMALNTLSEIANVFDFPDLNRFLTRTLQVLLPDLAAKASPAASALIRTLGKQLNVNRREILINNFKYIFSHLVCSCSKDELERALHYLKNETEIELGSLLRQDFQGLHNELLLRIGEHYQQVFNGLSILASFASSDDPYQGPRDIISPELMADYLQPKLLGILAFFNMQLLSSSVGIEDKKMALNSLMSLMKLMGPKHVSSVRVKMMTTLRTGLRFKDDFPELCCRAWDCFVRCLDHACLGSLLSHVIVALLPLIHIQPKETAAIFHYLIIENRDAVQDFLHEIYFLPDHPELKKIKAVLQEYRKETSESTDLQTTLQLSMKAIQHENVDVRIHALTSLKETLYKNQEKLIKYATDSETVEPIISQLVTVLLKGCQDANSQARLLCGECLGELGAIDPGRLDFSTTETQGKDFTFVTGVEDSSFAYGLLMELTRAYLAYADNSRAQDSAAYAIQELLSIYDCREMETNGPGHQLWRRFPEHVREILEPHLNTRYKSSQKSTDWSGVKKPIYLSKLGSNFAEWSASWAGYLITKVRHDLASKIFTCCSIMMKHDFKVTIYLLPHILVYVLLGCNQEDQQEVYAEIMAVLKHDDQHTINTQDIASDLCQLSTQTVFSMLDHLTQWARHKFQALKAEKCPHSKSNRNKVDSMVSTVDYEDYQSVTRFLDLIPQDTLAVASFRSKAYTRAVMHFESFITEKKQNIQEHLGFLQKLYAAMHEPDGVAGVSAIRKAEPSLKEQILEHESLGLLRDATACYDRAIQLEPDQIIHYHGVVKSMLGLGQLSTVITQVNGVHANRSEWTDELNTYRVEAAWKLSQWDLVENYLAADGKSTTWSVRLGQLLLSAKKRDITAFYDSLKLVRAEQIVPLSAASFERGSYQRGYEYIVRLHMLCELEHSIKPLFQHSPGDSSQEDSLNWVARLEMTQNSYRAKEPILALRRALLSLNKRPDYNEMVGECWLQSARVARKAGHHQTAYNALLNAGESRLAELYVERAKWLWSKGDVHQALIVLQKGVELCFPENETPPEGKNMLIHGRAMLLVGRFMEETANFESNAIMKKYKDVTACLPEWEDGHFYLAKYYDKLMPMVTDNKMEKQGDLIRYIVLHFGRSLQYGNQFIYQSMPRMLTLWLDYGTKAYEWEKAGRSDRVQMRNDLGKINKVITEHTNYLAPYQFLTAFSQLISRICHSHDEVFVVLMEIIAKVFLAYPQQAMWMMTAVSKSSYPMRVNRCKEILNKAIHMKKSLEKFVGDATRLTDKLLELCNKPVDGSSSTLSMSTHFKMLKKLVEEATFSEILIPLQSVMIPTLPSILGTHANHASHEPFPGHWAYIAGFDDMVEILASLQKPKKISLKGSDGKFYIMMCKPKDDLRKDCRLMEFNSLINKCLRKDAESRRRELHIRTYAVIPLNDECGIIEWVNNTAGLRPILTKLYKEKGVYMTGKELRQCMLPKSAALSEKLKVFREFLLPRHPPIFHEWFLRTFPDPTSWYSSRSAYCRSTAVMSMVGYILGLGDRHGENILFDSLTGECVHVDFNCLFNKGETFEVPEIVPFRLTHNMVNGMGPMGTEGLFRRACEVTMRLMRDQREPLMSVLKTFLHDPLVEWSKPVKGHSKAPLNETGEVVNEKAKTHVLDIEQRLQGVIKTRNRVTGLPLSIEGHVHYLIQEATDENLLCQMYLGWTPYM
Chain of full-length human ATR protein (Q8WXE1 other isoform, or with tags, fused parts or gaps partner): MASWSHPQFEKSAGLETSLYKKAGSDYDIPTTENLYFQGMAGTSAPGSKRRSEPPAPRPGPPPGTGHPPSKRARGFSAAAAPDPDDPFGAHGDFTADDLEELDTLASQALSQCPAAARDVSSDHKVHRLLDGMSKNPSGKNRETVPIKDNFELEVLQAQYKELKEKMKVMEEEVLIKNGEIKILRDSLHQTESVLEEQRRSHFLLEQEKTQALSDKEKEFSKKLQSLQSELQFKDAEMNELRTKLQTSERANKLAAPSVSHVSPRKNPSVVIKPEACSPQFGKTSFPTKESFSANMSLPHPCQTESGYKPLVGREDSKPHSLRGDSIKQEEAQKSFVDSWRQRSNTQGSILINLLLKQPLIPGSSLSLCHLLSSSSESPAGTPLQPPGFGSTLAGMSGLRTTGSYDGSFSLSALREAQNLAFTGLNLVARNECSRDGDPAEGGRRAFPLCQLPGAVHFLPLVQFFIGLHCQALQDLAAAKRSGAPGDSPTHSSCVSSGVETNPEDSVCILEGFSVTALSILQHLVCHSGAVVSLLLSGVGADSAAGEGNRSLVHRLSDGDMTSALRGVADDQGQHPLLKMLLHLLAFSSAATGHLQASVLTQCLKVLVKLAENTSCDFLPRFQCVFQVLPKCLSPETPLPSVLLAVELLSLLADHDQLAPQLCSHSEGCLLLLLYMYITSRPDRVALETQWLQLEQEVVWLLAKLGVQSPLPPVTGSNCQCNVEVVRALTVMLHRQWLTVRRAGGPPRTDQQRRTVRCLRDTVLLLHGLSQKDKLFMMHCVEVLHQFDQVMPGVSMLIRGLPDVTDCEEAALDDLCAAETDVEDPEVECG

IC50 (Caco-2 cells)	Compound	IC50 [1]
> 3000 nM	Clc1cc(N2CCOCC2)nc2c(-c3cc[nH]n3)nccc12 [Example 62, 4-chloro-2-morpholin-4-yl-8-(1H-pyrazol-3-yl)-[1,7]naphthyridine]	–
–	c1cc(-c2nccc3c(N4C[C@@H]5C[C@H]4CO5)cc(N4CCOCC4)nc23)[nH]n1 [Example 185, 2-(morpholin-4-yl)-4-[(1S,4S)-2-oxa-5-azabicyclo[2.2.1]hept-5-yl]-8-(1H-pyrazol-5-yl)-1,7-naphthyridine]	852 nM
